Here are results for eight compounds from US8476253B2, “Amide derivative” (Daiichi Sankyo Company, Limited, priority 2009, dated 2013).

Counter-ions that a name gives are not always drawn. Like-named read-outs stand apart in the source and are kept apart here.

Assay [1] has as its target T1, human M3 receptor (Homo sapiens, UniProt P20309).
T1 construct: expressed in transfected cells; host or cells: CHO cells
Description: Test for binding to human M3 receptor. The procedure: A solution of cryopreserved CHO cells expressing human M3 receptor was diluted with a buffer (50 mM tris-hydrochloride containing 0.5 mM of EDTA, pH 7.4) to obtain 5.0×10^5 of cells/mL and used as a crude membrane sample.
[N-methyl-^3H]-(−)-Scopolamine methyl chloride (GE Healthcare Japan Corporation) was diluted with 50 mM of tris-hydrochloride containing 0.5 mM of EDTA (pH 7.4), a test substance and 250 μL of the crude membrane sample solution were added to 250 μL of the mixture, and the mixture was incubated at room temperature for 60 minutes. […] The glass fiber filter paper was pretreated with a 0.1% polyethylenimine solution for 4 hours or longer to minimize non-specific binding. The filter collecting membrane components was transferred to a small-size plastic vial containing 3 mL of Pico-Fluor, and the radioactivity was measured with a liquid scintillation counter (Tri-Carb 2900TR or 2300TR; Perkin Elmer).
The effect of binding to the M3 receptor was calculated as the affinity (Ki) of the test substance for the M3 receptor from a 50% binding dose (IC50) and the affinity (Kd) of [N-methyl-^3H]-(−)-Scopolamine methyl chloride for the M3 receptor.

Assay [2] addresses T2, substance P receptor (Cavia porcellus, UniProt P30547).
T2 construct: A preparation of a crude lung membrane sample was prepared; from tissue; host or cells: guinea-pig lung (crude membrane sample)
Kind of assay: Test for binding to guinea-pig substance P receptor (crude lung membrane sample). The note with it: crude guinea-pig lung membrane sample, [3H]substance P; Ki from IC50 and Kd; read-out: Ki. Here is the method: A preparation of a crude lung membrane sample was prepared, and a test for binding of a test substance to the sample was performed according to the method described in EP0336230A2.
The binding effect of the test substance to a substance P receptor was calculated as an affinity (Ki) of the test substance for the substance P receptor from a 50% binding concentration (IC50) and an affinity (Kd) of [^3H]substance P for the substance P receptor.

Assay [3] deals with T3, human NK2 receptor (Homo sapiens, UniProt P21452).
T3 construct: expressed in transfected cells; host or cells: COS cells
T3 sequence (P21452 1-398): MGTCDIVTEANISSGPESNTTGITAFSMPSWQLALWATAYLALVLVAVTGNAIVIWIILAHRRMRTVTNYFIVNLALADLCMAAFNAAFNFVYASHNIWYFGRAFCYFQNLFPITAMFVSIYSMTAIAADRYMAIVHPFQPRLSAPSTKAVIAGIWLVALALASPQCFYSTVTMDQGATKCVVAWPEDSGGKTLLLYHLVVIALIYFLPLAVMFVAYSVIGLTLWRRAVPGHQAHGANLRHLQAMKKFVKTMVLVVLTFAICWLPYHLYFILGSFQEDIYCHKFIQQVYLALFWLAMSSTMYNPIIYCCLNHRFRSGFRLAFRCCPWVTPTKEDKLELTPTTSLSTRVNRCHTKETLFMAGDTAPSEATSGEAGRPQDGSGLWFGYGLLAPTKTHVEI
Kind of assay: Test for binding to human NK2 receptor. Here is the method: A solution of cryopreserved COS cells expressing human NK2 receptor was diluted with a buffer (50 mM tris-hydrochloride containing 0.04% of bovine serum albumin [BSA], pH 7.4) to obtain a concentration of 5.0×10^5 cells/mL and used as a crude membrane sample.
[^3H]SR 48968 (GE Healthcare Japan Corporation) was diluted with a mixture of 50 mM of tris-hydrochloride (pH 7.4), 6 mM of manganese chloride tetrahydrate, 800 μg/mL of BSA, 8 μg/mL of chymostatin, 8 μg/mL of leupeptin, 80 μg/mL of bacitracin, and 20 μg/mL of phosphoramidon. […] After the reaction, the membrane components were collected on a GF/B glass fiber filter paper (Whatman; Biomedical Research and Development Laboratories, Inc.) with an automated filtration system (Brandel; Biomedical Research and Development Laboratories, Inc.). The glass fiber filter paper was pretreated with a 0.1% polyethylenimine solution for 4 hours or longer to minimize non-specific binding. The filter collecting the membrane components was transferred to a small-size plastic vial containing 3 mL of Pico-Fluor, and the radioactivity was measured with a liquid scintillation counter (Tri-Carb 2900TR or 2300TR; Perkin Elmer).
The effect of binding to the NK2 receptor was calculated as the affinity (Ki) of the test substance for the NK2 receptor from a 50% binding dose (IC50) and the affinity (Kd) of [^3H]SR 48968 for the NK2 receptor.

The mark [4] stands for this setting: CHO cells expressing human M3 receptor, [N-methyl-3H]-(-)-Scopolamine methyl chloride 0.5 nM, Ki from IC50 and Kd, read-out: Ki.
Where [5] appears, read: COS cells expressing human NK2 receptor, [3H]SR 48968 1 nM, Ki from IC50 and Kd, read-out: Ki.

T2 sequence (P30547 whole entry): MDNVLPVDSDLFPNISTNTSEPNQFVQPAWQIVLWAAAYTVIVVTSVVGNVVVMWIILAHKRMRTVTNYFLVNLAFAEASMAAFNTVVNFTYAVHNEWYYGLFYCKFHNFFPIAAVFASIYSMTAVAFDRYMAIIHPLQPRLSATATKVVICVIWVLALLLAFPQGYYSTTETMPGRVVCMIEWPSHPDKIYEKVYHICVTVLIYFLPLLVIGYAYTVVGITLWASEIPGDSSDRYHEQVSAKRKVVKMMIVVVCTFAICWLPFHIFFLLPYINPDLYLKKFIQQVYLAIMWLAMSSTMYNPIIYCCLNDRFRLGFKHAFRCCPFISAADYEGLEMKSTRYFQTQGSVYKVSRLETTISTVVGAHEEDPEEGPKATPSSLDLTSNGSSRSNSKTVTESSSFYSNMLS
T1 sequence (P20309 whole entry): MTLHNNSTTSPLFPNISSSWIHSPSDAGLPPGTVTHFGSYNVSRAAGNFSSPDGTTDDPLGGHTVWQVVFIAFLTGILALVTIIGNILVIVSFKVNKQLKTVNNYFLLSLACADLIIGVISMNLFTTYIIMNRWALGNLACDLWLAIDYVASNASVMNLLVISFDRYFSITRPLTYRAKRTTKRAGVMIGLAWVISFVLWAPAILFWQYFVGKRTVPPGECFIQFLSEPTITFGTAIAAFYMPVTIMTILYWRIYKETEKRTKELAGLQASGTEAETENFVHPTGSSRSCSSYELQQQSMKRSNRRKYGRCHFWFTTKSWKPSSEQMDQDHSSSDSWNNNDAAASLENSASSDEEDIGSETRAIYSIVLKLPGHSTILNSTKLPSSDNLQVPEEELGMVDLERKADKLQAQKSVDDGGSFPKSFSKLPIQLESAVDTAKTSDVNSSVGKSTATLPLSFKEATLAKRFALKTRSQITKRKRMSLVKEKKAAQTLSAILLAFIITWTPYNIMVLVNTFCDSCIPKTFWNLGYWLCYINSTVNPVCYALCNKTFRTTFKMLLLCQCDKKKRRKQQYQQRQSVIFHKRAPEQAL

In general, Ki refers to the equilibrium dissociation constant of an inhibitor or competing ligand from its target. Turning to `CN(CCN1CCC(OC(=O)Nc2ccccc2-c2ccccc2)CC1)C(=O)CCCCCN(C)c1ccc(C(=O)N(C)CCCN(C)C(=O)CO[C@H]2Cc3ccccc3C23CCN(CC[C@@]2(c4ccc(F)cc4)CN(C(=O)c4cc(C(F)(F)F)cc(C(F)(F)F)c4)CO2)CC3)s1` [Example 8, 1-{2-[{6-[{5-[{3-[({[(2S)-1′-{2-[(5R)-3-[3,5-Bis(trifluoromethyl)benzoyl]-5-(4-fluorophenyl)-1,3-oxazolidin-5-yl]ethyl}-2,3-dihydrospiro[indene-1,4′-piperidin]-2-yl]oxy}acetyl)(methyl)amino]propyl}(methyl)carbamoyl]-2-thienyl}(methyl)amino]hexanoyl}(methyl)amino]ethyl}piperidin-4-yl biphenyl-2-ylcarbamate], the Ki in assay [1] (setting [4]) was determined as 1.9 nM; in assay [2], 2.6 nM; in assay [3] (setting [5]), 0.38 nM.
Regarding `Cc1nc(NCCCCCC(=O)N(C)CCN2CCC(OC(=O)Nc3ccccc3-c3ccccc3)CC2)sc1C(=O)N(C)CCN(C)C(=O)CO[C@H]1Cc2ccccc2C12CCN(CC[C@@]1(c3ccc(F)cc3)CN(C(=O)c3cc(C(F)(F)F)cc(C(F)(F)F)c3)CO1)CC2` [Example 107, 1-(2-{[6-({5-[{2-[({[(2S)-1′-{2-[(5R)-3-[3,5-Bis(trifluoromethyl)benzoyl]-5-(4-fluorophenyl)-1,3-oxazolidin-5-yl]ethyl}-2,3-dihydrospiro[indene-1,4′-piperidin]-2-yl]oxy}acetyl)(methyl)amino]ethyl}(methyl)carbamoyl]-4-methyl-1,3-thiazol-2-yl}amino)hexanoyl](methyl)amino}ethyl)piperidin-4-yl biphenyl-2-ylcarbamate trihydrochloride], the figures for the Ki in assay [1], in assay [2] and in assay [3] were 1.4 nM, 1.2 nM and 0.59 nM, respectively.
Consider `CN(CCN1CCC(OC(=O)Nc2ccccc2-c2ccccc2)CC1)C(=O)CCCCCCNc1ccc(C(=O)N(C)CCCN(C)C(=O)CO[C@H]2Cc3ccccc3C23CCN(CC[C@@]2(c4ccc(F)cc4)CN(C(=O)c4cc(C(F)(F)F)cc(C(F)(F)F)c4)CO2)CC3)cc1.Cl.Cl.Cl` [Example 39, 1-(2-{[7-({4-[{3-[({[(2S)-1′-{2-[(5R)-3-[3,5-Bis(trifluoromethyl)benzoyl]-5-(4-fluorophenyl)-1,3-oxazolidin-5-yl]ethyl}-2,3-dihydrospiro[indene-1,4′-piperidin]-2-yl]oxy}acetyl)(methyl)amino]propyl}methyl)carbamoyl]phenyl}amino)heptanoyl](methyl)amino}ethyl)piperidin-4-yl biphenyl-2-ylcarbamate trihydrochloride], for which the inhibitory constant (Ki) is 1.4 nM in assay [1] (setting [4]), 1.2 nM in assay [2] and 0.82 nM in assay [3] (setting [5]).
Regarding `CN(CCN1CCC(OC(=O)Nc2ccccc2-c2ccccc2)CC1)C(=O)CCCCCNCc1ccc(C(=O)N(C)CCCN(C)C(=O)CO[C@H]2Cc3ccccc3C23CCN(CC[C@@]2(c4ccc(F)cc4)CN(C(=O)c4cc(C(F)(F)F)cc(C(F)(F)F)c4)CO2)CC3)nc1` [Example 7, 1-{2-[{6-[({6-[{3-[({[(2S)-1′-{2-[(5R)-3-[3,5-Bis(trifluoromethyl)benzoyl]-5-(4-fluorophenyl)-1,3-oxazolidin-5-yl]ethyl}-2,3-dihydrospiro[indene-1,4′-piperidin]-2-yl]oxy}acetyl)(methy)amino]propyl}(methyl)carbamoyl]pyridin-3-yl}methyl)amino]hexanoyl}(methyl)amino]ethyl}piperidin-4-yl biphenyl-2-ylcarbamate], the inhibition constant Ki stood at 0.9 nM in assay [1] (setting [4]), 0.57 nM in assay [2] and 0.17 nM in assay [3] (setting [5]).
For the compound `CN(CCN1CCC(OC(=O)Nc2ccccc2-c2ccccc2)CC1)C(=O)CCCCCNc1ccc(NC(=O)CCCN(C)C(=O)CO[C@H]2Cc3ccccc3C23CCN(CC[C@@]2(c4ccc(F)cc4)CN(C(=O)c4cc(C(F)(F)F)cc(C(F)(F)F)c4)CO2)CC3)cc1` [Example 82, 1-{2-[(6-{[4-({4-[({[(2S)-1′-{2-[(5R)-3-[3,5-Bis(trifluoromethyl)benzoyl]-5-(4-fluorophenyl)-1,3-oxazolidin-5-yl]ethyl}-2,3-dihydrospiro[indene-1,4′-piperidin]-2-yl]oxy}acetyl)(methyl)amino]butanoyl}amino)phenyl]amino}hexanoyl)(methyl)amino]ethyl}piperidin-4-yl biphenyl-2-ylcarbamate trihydrochloride], the inhibitory constant (Ki) in assay [1] is 1.6 nM; in assay [2], 4.5 nM; in assay [3] it was 0.6 nM.
As for `CN(CCCCCC(=O)N(C)CCN1CCC(OC(=O)Nc2ccccc2-c2ccccc2)CC1)Cc1ccc(C(=O)N(C)CCCN(C)C(=O)CO[C@H]2Cc3ccccc3C23CCN(CC[C@@]2(c4ccc(F)cc4)CN(C(=O)c4cc(C(F)(F)F)cc(C(F)(F)F)c4)CO2)CC3)nc1` [Example 5, 1-{2-[{6-[({6-[{3-[({[(2S)-1′-{2-[(5R)-3-[3,5-Bis(trifluoromethyl)benzoyl]-5-(4-fluorophenyl)-1,3-oxazolidin-5-yl]ethyl}-2,3-dihydrospiro[indene-1,4′-piperidin]-2-yl]oxy}acetyl)(methyl)amino]propyl}(methyl)carbamoyl]pyridin-3-yl}methyl)(methyl)amino]hexanoyl}(methyl)amino]ethyl}piperidin-4-yl biphenyl-2-ylcarbamate], the inhibition constant Ki is 0.69 nM in assay [1] (setting [4]), 1.5 nM in assay [2] and 0.48 nM in assay [3] (setting [5]).
On to `Cc1nc(N(C)CCCCCC(=O)N(C)CCN2CCC(OC(=O)Nc3ccccc3-c3ccccc3)CC2)sc1C(=O)N(C)CCCN(C)C(=O)CO[C@H]1Cc2ccccc2C12CCN(CC[C@@]1(c3ccc(F)cc3)CN(C(=O)c3cc(C(F)(F)F)cc(C(F)(F)F)c3)CO1)CC2` [Example 106, 1-{2-[{6-[{5-[{3-[({[(2S)-1′-{2-[(5R)-3-[3,5-Bis(trifluoromethyl)benzoyl]-5-(4-fluorophenyl)-1,3-oxazolidin-5-yl]ethyl}-2,3-dihydrospiro[indene-1,4′-piperidin]-2-yl]oxy}acetyl)(methyl)amino]propyl}(methyl)carbamoyl]-4-methyl-1,3-thiazol-2-yl}(methyl)amino]hexanoyl}(methyl)amino]ethyl}piperidin-4-yl biphenyl-2-ylcarbamate trihydrochloride], for which the inhibition constant (Ki) was 1.3 nM in assay [1], 3.1 nM in assay [2] and 0.34 nM in assay [3].
Turning to `Cc1cc(NCCCCCC(=O)N(C)CCN2CCC(OC(=O)Nc3ccccc3-c3ccccc3)CC2)sc1C(=O)N(C)CCN(C)C(=O)CO[C@H]1Cc2ccccc2C12CCN(CC[C@@]1(c3ccc(F)cc3)CN(C(=O)c3cc(C(F)(F)F)cc(C(F)(F)F)c3)CO1)CC2` [Example 89, 1-(2-{[6-({5-[{2-[({[(2S)-1′-{2-[(5R)-3-[3,5-Bis(trifluoromethyl)benzoyl]-5-(4-fluorophenyl)-1,3-oxazolidin-5-yl]ethyl}-2,3-dihydrospiro[indene-1,4′-piperidin]-2-yl]oxy}acetyl)(methyl)amino]ethyl}(methyl)carbamoyl]-4-methyl-2-thienyl}amino)hexanoyl](methyl)amino}ethyl)piperidin-4-yl biphenyl-2-ylcarbamate], the inhibitory constant (Ki) in assay [1] (setting [4]) came out at 1.2 nM; in assay [2] it was 0.74 nM; in assay [3] (setting [5]), 0.75 nM.
